Experimental data taken from PubChem BioAssay AID1996.
In brackets after ≈: the same amount, converted by molar mass.

Details: buffer; pH 7.4; 200.0 µM

| solubility kinetic | SMILES |
| --- | --- |
| < 0.9 µg/mL | COc1ccc(Oc2ccc(C(F)(F)F)cc2NC(=O)c2ccc(F)cc2)cc1 |
| > 56.8 µg/mL | O=C(Nc1cccc(-c2cscn2)c1)C1CCN(Cc2ccccn2)CC1 |
| 14 µg/mL (≈ 46.2 µM) | CCCC(=O)Nc1ccc(C(=O)COC(=O)C2CC2C)cc1 (centres undefined) |
| 46.6 µg/mL (≈ 110 µM) | COc1ccc(Cl)cc1NC(=O)COC(=O)Cc1cc(OC)c(OC)c(OC)c1 |
| 1.4 µg/mL (≈ 4.84 µM) | Cc1noc(C(=O)Nc2ccc(F)c(Cl)c2)c1Cl |
| 21 µg/mL (≈ 74.9 µM) | C=CCNC(=S)N(C1CCCCC1)C1CCCCC1 |
| 44.1 µg/mL (≈ 136 µM) | CC(C)(C)NCC(O)CON=C1c2ccccc2-c2ccccc21 (centres undefined) |
| 4.1 µg/mL (≈ 15.3 µM) | COc1ccc(C(=O)Nc2nc3ccccc3[nH]2)cc1 |
| > 45.7 µg/mL | Cn1cnc2c1c(=O)n(Cc1cccc(Cl)c1)c(=O)n2C |
| 38.3 µg/mL (≈ 125 µM) | Cc1ccc(C)n1-c1ccc(C(=O)NCc2ccncc2)cc1 |
| 6.4 µg/mL (≈ 22.1 µM) | CC(C)(C)c1ccc(CSc2nc(N)cc(=O)[nH]2)cc1 |
| 4 µg/mL (≈ 11.6 µM) | CCCCOc1ccc(C(=O)NCCOc2cccc(OC)c2)cc1 |
| < 0.5 µg/mL | COc1ccc2cc(-c3ccon3)ccc2c1 |
| > 35.6 µg/mL | Nn1c(-c2ccccc2)nc2ccccc2c1=O |
| > 45.2 µg/mL | COC(=O)c1ccc(S(=O)(=O)N2CCN(C)CC2)n1C |
| > 47 µg/mL | Cc1ccc2c(C(=O)CN3CCC(C(N)=O)CC3)c(C)[nH]c2c1 |
| 45.1 µg/mL (≈ 117 µM) | CC(=O)Nc1ccc(NC(=O)CN2C(=O)NC3(CCCCCCC3)C2=O)cc1 |
| 38.2 µg/mL (≈ 150 µM) | Cc1nc2cc(NC(=O)c3ccco3)ccc2n1C |
| 33.5 µg/mL (≈ 77.9 µM) | COc1ccc(C(C)=O)cc1COC(=O)C1CCN(C(=O)c2ccc(Cl)cc2)CC1 |

| solubility kinetic | SMILES |
| --- | --- |
| > 45.2 µg/mL | O=C(CCS(=O)(=O)c1ccc(F)cc1)N1CCOCC1 |
| > 39.2 µg/mL | Oc1[nH]c(=S)sc1C=C1N=c2ccccc2=N1 |
| 17.6 µg/mL (≈ 69.8 µM) | O=[N+]([O-])c1ccc(CNc2cccc(F)c2)s1 |
| > 34.5 µg/mL | S=C(Nc1cccnc1)Nc1ccccn1 |
| 1.5 µg/mL (≈ 5.69 µM) | Cc1c(Cl)cccc1NC(=O)C1CC2CCC1C2 (centres undefined) |
| > 30.2 µg/mL | COCc1c(CCl)cnc(C)c1O |
| > 44.7 µg/mL | Cc1cc(C)c(S(=O)(=O)c2cccc(Cl)c2)c(=O)[nH]1 |
| 48.1 µg/mL (≈ 130 µM) | Cc1ccc(C23CC4CC(CC(C(=O)NC(C(=O)O)C(C)C)(C4)C2)C3)cc1 (centres undefined) |
| 29.5 µg/mL (≈ 112 µM) | CCOC(=O)c1c2c([nH]c(=S)c1C#N)CCCC2 |
| 4 µg/mL (≈ 11.6 µM) | O=C1c2ccccc2C(=O)N1CCOc1ccccc1Br |
| > 49.9 µg/mL | Cc1cc(=O)[nH]c(SCC(=O)Nc2nc3ccccc3s2)n1 |
| 5.6 µg/mL (≈ 16.5 µM) | O=C(Nc1ccccc1N1CCOCC1)c1ccc2c(c1)OCCO2 |
| > 41.7 µg/mL | Fc1c(F)c(F)c(NC2=NCCCCC2)c(F)c1F |
| 15.2 µg/mL (≈ 48.7 µM) | COC(=O)C1=C(C)NC(=O)NC1c1c(O)ccc2ccccc12 (centres undefined) |
| 19.5 µg/mL (≈ 55.5 µM) | C=CCn1c(=O)c2c(nc3n2CCCN3Cc2ccccc2)n(C)c1=O |
| 8.4 µg/mL (≈ 28.6 µM) | COc1ccc(Cl)cc1C(=O)OCC(=O)c1ccc[nH]1 |
| 17.4 µg/mL (≈ 64.8 µM) | O=C(NCc1ccccc1)c1nc2ccccc2s1 |
| > 58.7 µg/mL | COc1cc(NC(=O)C(c2ccccc2)c2ccccc2)c(C(=O)O)cc1OC |
| 3.1 µg/mL (≈ 12.3 µM) | CC(=O)c1sc(-c2cccc(Cl)c2)nc1C |

| solubility kinetic | SMILES |
| --- | --- |
| 26.7 µg/mL (≈ 112 µM) | O=C(Nc1ccc(Cl)cc1)Nc1ccon1 |
| 40.6 µg/mL (≈ 136 µM) | Cc1ccc2c(=O)c(CN3CCCCCC3)c(C)[nH]c2c1C |
| 26.2 µg/mL (≈ 119 µM) | COc1ccc(CN2CCCCCC2)cc1 |
| > 51.5 µg/mL | O=C(NCC(=O)N1CCN(c2ncccn2)CC1)c1ccccc1F |
| < 0.4 µg/mL | CC(=O)Nc1ccc(S(=O)(=O)NC2C3(C)CCC(C3)C2(C)C)cc1 (centres undefined) |
| > 41.9 µg/mL | NC(=O)CN1C(=O)C(=O)N(Cc2ccc(F)cc2)C1=O |
| > 25.8 µg/mL | CC1=[N+]([O-])C(C)(C)N(O)C1(C)C |
| 40.5 µg/mL (≈ 138 µM) | O=S(=O)(NCc1cccs1)c1ccc(Cl)s1 |
| 13.6 µg/mL (≈ 44.4 µM) | N#CCc1ccc(OC(=O)c2cnccc2C(F)(F)F)cc1 |
| 21.7 µg/mL | Cc1cc(=O)n2cccc(O)c2n1.Cl |
| > 49.9 µg/mL | O=C(CN1CCN(c2ccccn2)CC1)Nc1cc(F)ccc1F |
| 34.1 µg/mL (≈ 104 µM) | CN1CCN(CCCNc2c(C=O)c(=O)[nH]c3ccccc23)CC1 |
| 31.7 µg/mL (≈ 108 µM) | O=C(COc1ccc(/C=C\[N+](=O)[O-])cc1)N1CCOCC1 |
| 9.6 µg/mL (≈ 35.5 µM) | Cc1ccc(NC2Sc3ccccc3NC2=O)cc1 (centres undefined) |
| 4.2 µg/mL (≈ 12.9 µM) | O=C(c1ccc(-c2ccc(Cl)cc2Cl)o1)N1CCOCC1 |
| 52.8 µg/mL (≈ 149 µM) | O=C(N1CCN(S(=O)(=O)c2ccc(Cl)cc2)CC1)n1ccnc1 |
| 43.3 µg/mL (≈ 136 µM) | COc1ccc(C2(C)NC(=O)N(CC(=O)NC3CC3)C2=O)cc1 (centres undefined) |
| > 52.7 µg/mL | Cc1nc(SCC(=O)NCC2CCCO2)c2c(C)c(C)sc2n1 (centres undefined) |
| 35.1 µg/mL (≈ 110 µM) | O=c1c2[nH]cnc2n(-c2ccccc2)c(=O)n1Cc1ccccc1 |

| SMILES | solubility kinetic |
| --- | --- |
| COc1ccccc1-n1c(-c2ccccc2Cl)nc2ccccc2c1=O | 36.2 µg/mL (≈ 99.8 µM) |
| CC(C)CNC(=O)C1CCN(CC2CCCCC2)CC1.O=C(O)C(=O)O | > 55.6 µg/mL |
